Values quoted from earlier work as cited in US7097855B1, “Transdermal thermal polymerization” (Massachusetts Institute of Technology, priority 2000, dated 2006).

Key:
[1] = at 20° C.

CC(C)(N=NC(C)(C)C1=NCCN1)C1=NCCN1.Cl.Cl [AZODIA HCl, 2,2′-azobis-(N,N′-dimethyleneisobutyramidine) dihydrochloride]
water solubility [1]: 35.2 g/100 g solvent | LD50 (oral, rat), female (rat; female): 2800 mg/kg | LD50 (oral, rat), male (rat; male): 3200 mg/kg
